# Measurements published in paper PMC4501006, “Preliminary Characterization and In Vivo Studies of Structurally Identical ^18F- and ^125I-Labeled Benzyloxybenzenes for PET/SPECT Imaging of β-Amyloid Plaques” (Scientific Reports, 2015).
# Several values for one entry are separate records, joined by “and”; a condition that tells them apart may be missing. Identical values can stand only once.
# Experiment: In vivo biodistribution in normal ICR mice
# Conditions: i.v.
# [1] = carrier-added, SA ≈ 60 GBq/μmol, 2 min
# [2] = carrier-added, SA ≈ 60 GBq/μmol, 10 min
# [3] = carrier-added, SA ≈ 60 GBq/μmol, 30 min
# [4] = carrier-added, SA ≈ 60 GBq/μmol, 60 min
compound,measurement,setting,value
FCCOc1ccc(OCc2ccc([125I])cc2)cc1 [[^125I]7a],"Biodistribution of radioactivity, blood",[1],3.30 ± 0.43 % injected dose per gram
same,"Biodistribution of radioactivity, brain",[1],5.39 % injected dose per gram
same,"Biodistribution of radioactivity, heart",[1],7.34 ± 0.69 % injected dose per gram
same,"Biodistribution of radioactivity, intestine",[1],4.57 ± 0.96 % injected dose per organ
same,"Biodistribution of radioactivity, kidney",[1],9.80 ± 1.05 % injected dose per gram
same,"Biodistribution of radioactivity, liver",[1],12.12 ± 2.01 % injected dose per gram
same,"Biodistribution of radioactivity, lung",[1],7.77 ± 0.18 % injected dose per gram
same,"Biodistribution of radioactivity, muscle",[1],3.37 ± 0.50 % injected dose per gram
same,"Biodistribution of radioactivity, pancreas",[1],6.79 ± 1.53 % injected dose per gram
same,"Biodistribution of radioactivity, spleen",[1],3.63 ± 0.83 % injected dose per gram
same,"Biodistribution of radioactivity, stomach",[1],1.15 ± 0.21 % injected dose per organ
same,"Biodistribution of radioactivity, thyroid",[1],0.12 ± 0.03 % injected dose per organ
same,"Biodistribution of radioactivity, brain","carrier-added, SA ≈ 60 GBq/μmol, 2 min, listed as [125I]7a",5.39 ± 0.36 % injected dose per gram
same,"Biodistribution of radioactivity, blood",[2],2.31 ± 0.22 % injected dose per gram
same,"Biodistribution of radioactivity, brain",[2],3.51 ± 0.36 % injected dose per gram
same,"Biodistribution of radioactivity, heart",[2],2.32 ± 0.15 % injected dose per gram
same,"Biodistribution of radioactivity, intestine",[2],8.51 ± 0.48 % injected dose per organ
same,"Biodistribution of radioactivity, kidney",[2],10.01 ± 1.43 % injected dose per gram
same,"Biodistribution of radioactivity, liver",[2],11.30 ± 0.58 % injected dose per gram
same,"Biodistribution of radioactivity, lung",[2],6.50 ± 0.69 % injected dose per gram
same,"Biodistribution of radioactivity, muscle",[2],1.42 ± 0.20 % injected dose per gram
same,"Biodistribution of radioactivity, pancreas",[2],2.79 ± 0.35 % injected dose per gram
same,"Biodistribution of radioactivity, spleen",[2],1.53 ± 0.23 % injected dose per gram
same,"Biodistribution of radioactivity, stomach",[2],0.74 ± 0.09 % injected dose per organ
same,"Biodistribution of radioactivity, thyroid",[2],0.11 ± 0.01 % injected dose per organ
same,"Biodistribution of radioactivity, blood",[3],1.39 ± 0.15 % injected dose per gram
same,"Biodistribution of radioactivity, brain",[3],0.97 ± 0.11 % injected dose per gram
same,"Biodistribution of radioactivity, heart",[3],0.96 ± 0.13 % injected dose per gram
same,"Biodistribution of radioactivity, intestine",[3],18.87 ± 2.27 % injected dose per organ
same,"Biodistribution of radioactivity, kidney",[3],6.25 ± 1.23 % injected dose per gram
same,"Biodistribution of radioactivity, liver",[3],6.29 ± 0.22 % injected dose per gram
same,"Biodistribution of radioactivity, lung",[3],4.30 ± 0.58 % injected dose per gram
same,"Biodistribution of radioactivity, muscle",[3],0.95 ± 0.08 % injected dose per gram
same,"Biodistribution of radioactivity, pancreas",[3],1.06 ± 0.16 % injected dose per gram
same,"Biodistribution of radioactivity, spleen",[3],0.62 ± 0.03 % injected dose per gram
same,"Biodistribution of radioactivity, stomach",[3],1.67 ± 0.33 % injected dose per organ
same,"Biodistribution of radioactivity, thyroid",[3],0.12 ± 0.04 % injected dose per organ
same,"Biodistribution of radioactivity, blood",[4],0.83 ± 0.06 % injected dose per gram
same,"Biodistribution of radioactivity, brain",[4],0.37 % injected dose per gram
same,"Biodistribution of radioactivity, heart",[4],0.55 ± 0.10 % injected dose per gram
same,"Biodistribution of radioactivity, intestine",[4],25.30 ± 3.94 % injected dose per organ
same,"Biodistribution of radioactivity, kidney",[4],3.40 ± 0.48 % injected dose per gram
same,"Biodistribution of radioactivity, liver",[4],3.31 ± 0.37 % injected dose per gram
same,"Biodistribution of radioactivity, lung",[4],1.91 ± 0.29 % injected dose per gram
same,"Biodistribution of radioactivity, muscle",[4],0.72 ± 0.20 % injected dose per gram
same,"Biodistribution of radioactivity, pancreas",[4],0.57 ± 0.05 % injected dose per gram
same,"Biodistribution of radioactivity, spleen",[4],0.36 ± 0.03 % injected dose per gram
same,"Biodistribution of radioactivity, stomach",[4],1.04 ± 0.30 % injected dose per organ
same,"Biodistribution of radioactivity, thyroid",[4],0.22 ± 0.05 % injected dose per organ
same,"Biodistribution of radioactivity, brain","carrier-added, SA ≈ 60 GBq/μmol, 60 min, listed as [125I]7a",0.37 ± 0.05 % injected dose per gram
same,brain2 min/brain60 min ratio,,12.8
same,"Biodistribution of radioactivity, blood",2 min,5.03 ± 0.20 % injected dose per gram
same,"Biodistribution of radioactivity, brain",2 min,> 5 % injected dose per gram and 7.04 % injected dose per gram
same,"Biodistribution of radioactivity, heart",2 min,9.70 ± 2.25 % injected dose per gram
same,"Biodistribution of radioactivity, intestine",2 min,6.46 ± 0.79 % injected dose per organ
same,"Biodistribution of radioactivity, kidney",2 min,12.03 ± 1.20 % injected dose per gram
same,"Biodistribution of radioactivity, liver",2 min,22.45 ± 3.88 % injected dose per gram
same,"Biodistribution of radioactivity, lung",2 min,10.78 ± 2.33 % injected dose per gram
same,"Biodistribution of radioactivity, muscle",2 min,3.72 ± 0.51 % injected dose per gram
same,"Biodistribution of radioactivity, pancreas",2 min,8.15 ± 1.09 % injected dose per gram
same,"Biodistribution of radioactivity, spleen",2 min,3.86 ± 0.21 % injected dose per gram
same,"Biodistribution of radioactivity, stomach",2 min,1.32 ± 0.21 % injected dose per organ
same,"Biodistribution of radioactivity, thyroid",2 min,0.12 ± 0.02 % injected dose per organ
same,"Biodistribution of radioactivity, brain","2 min, listed as [125I]7a",7.04 ± 0.89 % injected dose per gram
same,"Biodistribution of radioactivity, blood",10 min,3.03 ± 0.48 % injected dose per gram
same,"Biodistribution of radioactivity, brain",10 min,2.73 ± 0.25 % injected dose per gram
same,"Biodistribution of radioactivity, heart",10 min,2.01 ± 0.14 % injected dose per gram
same,"Biodistribution of radioactivity, intestine",10 min,17.21 ± 2.33 % injected dose per organ
same,"Biodistribution of radioactivity, kidney",10 min,9.53 ± 1.58 % injected dose per gram
same,"Biodistribution of radioactivity, liver",10 min,14.43 ± 2.37 % injected dose per gram
same,"Biodistribution of radioactivity, lung",10 min,7.44 ± 1.59 % injected dose per gram
same,"Biodistribution of radioactivity, muscle",10 min,1.28 ± 0.11 % injected dose per gram
same,"Biodistribution of radioactivity, pancreas",10 min,2.07 ± 0.30 % injected dose per gram
same,"Biodistribution of radioactivity, spleen",10 min,1.32 ± 0.13 % injected dose per gram
same,"Biodistribution of radioactivity, stomach",10 min,1.08 ± 0.24 % injected dose per organ
same,"Biodistribution of radioactivity, thyroid",10 min,0.09 ± 0.02 % injected dose per organ
same,"Biodistribution of radioactivity, blood",30 min,2.17 ± 0.31 % injected dose per gram
same,"Biodistribution of radioactivity, brain",30 min,1.05 ± 0.22 % injected dose per gram
same,"Biodistribution of radioactivity, heart",30 min,1.65 ± 0.43 % injected dose per gram
same,"Biodistribution of radioactivity, intestine",30 min,19.88 ± 4.22 % injected dose per organ
same,"Biodistribution of radioactivity, kidney",30 min,6.71 ± 0.78 % injected dose per gram
same,"Biodistribution of radioactivity, liver",30 min,12.35 ± 2.83 % injected dose per gram
same,"Biodistribution of radioactivity, lung",30 min,4.25 ± 0.41 % injected dose per gram
same,"Biodistribution of radioactivity, muscle",30 min,1.29 ± 0.31 % injected dose per gram
same,"Biodistribution of radioactivity, pancreas",30 min,2.61 ± 0.59 % injected dose per gram
same,"Biodistribution of radioactivity, spleen",30 min,1.26 ± 0.20 % injected dose per gram
same,"Biodistribution of radioactivity, stomach",30 min,4.38 ± 1.00 % injected dose per organ
same,"Biodistribution of radioactivity, thyroid",30 min,0.12 ± 0.01 % injected dose per organ
same,"Biodistribution of radioactivity, blood",60 min,1.96 ± 0.31 % injected dose per gram
same,"Biodistribution of radioactivity, brain",60 min,0.55 % injected dose per gram
same,"Biodistribution of radioactivity, heart",60 min,1.00 ± 0.18 % injected dose per gram
same,"Biodistribution of radioactivity, intestine",60 min,20.21 ± 7.78 % injected dose per organ
same,"Biodistribution of radioactivity, kidney",60 min,6.56 ± 1.10 % injected dose per gram
same,"Biodistribution of radioactivity, liver",60 min,5.15 ± 1.09 % injected dose per gram
same,"Biodistribution of radioactivity, lung",60 min,4.04 ± 1.63 % injected dose per gram
same,"Biodistribution of radioactivity, muscle",60 min,1.36 ± 0.25 % injected dose per gram
same,"Biodistribution of radioactivity, pancreas",60 min,1.97 ± 0.48 % injected dose per gram
same,"Biodistribution of radioactivity, spleen",60 min,1.14 ± 0.56 % injected dose per gram
same,"Biodistribution of radioactivity, stomach",60 min,2.44 ± 0.97 % injected dose per organ
same,"Biodistribution of radioactivity, thyroid",60 min,0.16 ± 0.03 % injected dose per organ
same,"Biodistribution of radioactivity, brain","60 min, listed as [125I]7a",0.55 ± 0.11 % injected dose per gram
